Experimental data from patent US11241428B2, “Heteroaryl amide derivatives as selective inhibitors of histone deacetylases 1 and/or 2(HDAC1-2)” (Medibiofarma, S.L., priority 2017, dated 2022).

Tests used:
HDAC2 = HDAC2 (Homo sapiens (Human), UniProt Q92769); assay: biochemical HDAC assay (Reaction Biology Corp.), HDAC2; details: fluorogenic peptide RHKK(Ac)AMC; 10-dose, 3-fold dilution from 10 μM
Procedure: (§1) The inhibitory activities of compounds of present invention were determined using biochemical HDAC assays (Reaction Biology Corp. biochemical assay services). Compound with indicated doses was tested in the biochemical assays of HDAC 1, HDAC2, HDAC3, HDAC4, HDAC5, HDAC6, HDAC7, HDAC 8, HDAC9, HDAC10, and HDAC11 enzyme.
(§2) Compounds were tested in singlicate 10-dose IC50 mode with 3-fold serial dilution starting at 10 μM against 11 HDACs. HDAC reference compounds Trichostatin A (TSA) and TMP269 were tested in a 10-dose IC50 with 3-fold serial dilution starting at 10 μM.
(§3) Substrate for HDAC1,2,3,6,10: Fluorogenic peptide from p53 residues 379-382 (RHKK(Ac)AMC). Substrate for HDAC4,5,7,9, and 11: Fluorogenic HDAC Class2a Substrate (Trifluoroacetyl Lysine). Substrate for HDAC 8: Fluorogenic peptide from p53 residues 379-382 (RHK(Ac)K(Ac)AMC).
(§4) General Reaction Procedure: (Standard IC50 determination) • a. 2× enzyme was added to wells of reaction plate except to No Enzyme (No En) control wells. Add buffer in No En wells. • b. Compounds to be tested in 100% DMSO were added to the enzyme mixture by Acoustic technology (Echo550; nanoliter range). The mixture was spinned down and preincubated. • c. 2× Substrate Mixture (Fluorogenic HDAC Substrate and co-factor (500 μM of Nicotinamide adenine dinucleotide (NAD<+>) in all Sirt assay) were added to all reaction wells to initiate the reaction. The plates were spinned and shaken. • d. The plates were incubated for 1-2 hr. at 30° C. with seal. • e. Developer with Trichostatin A (or TMP269 or NAD<+>) was added to stop the reaction and to generate fluorescent color. • f. Fluorescence was read (excitatory, 360; emission, 460) using the EnVision Multilabel Plate Reader (Perkin Elmer) • g. Endpoint reading was taken for analysis after the development reaches plateau.
(§5) Data Analysis: The percentages of enzyme activity (relative to DMSO controls) and IC50 values were calculated using the GraphPad Prism 4 program based on a sigmoidal dose-response equation. The blank (DMSO) value was entered as 1.00E-12 of concentration for curve fitting.

HDAC10 = HDAC10 (Homo sapiens (Human), UniProt Q969S8); assay: biochemical HDAC assay (Reaction Biology Corp.), HDAC10; details: fluorogenic peptide RHKK(Ac)AMC; 10-dose, 3-fold dilution from 10 μM
HDAC10, sequence (Q969S8 whole entry): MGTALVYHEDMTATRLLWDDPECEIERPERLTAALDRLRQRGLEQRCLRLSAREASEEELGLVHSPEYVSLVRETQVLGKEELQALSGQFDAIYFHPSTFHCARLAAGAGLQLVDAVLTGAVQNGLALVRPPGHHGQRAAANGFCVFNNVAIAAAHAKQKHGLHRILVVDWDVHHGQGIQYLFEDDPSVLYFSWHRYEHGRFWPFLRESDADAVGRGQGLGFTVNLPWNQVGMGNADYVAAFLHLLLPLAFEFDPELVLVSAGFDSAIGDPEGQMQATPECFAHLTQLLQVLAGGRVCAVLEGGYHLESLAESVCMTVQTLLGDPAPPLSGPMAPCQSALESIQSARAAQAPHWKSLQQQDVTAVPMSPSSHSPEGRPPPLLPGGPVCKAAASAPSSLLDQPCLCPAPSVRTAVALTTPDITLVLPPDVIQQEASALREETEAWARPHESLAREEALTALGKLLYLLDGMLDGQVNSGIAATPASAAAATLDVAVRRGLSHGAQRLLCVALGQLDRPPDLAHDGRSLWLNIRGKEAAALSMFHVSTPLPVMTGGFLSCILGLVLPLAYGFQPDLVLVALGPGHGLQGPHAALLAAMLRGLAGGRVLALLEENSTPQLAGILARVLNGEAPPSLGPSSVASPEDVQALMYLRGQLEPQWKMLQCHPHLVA
Procedure: as §1, §2, §3, §4, §5

HDAC3 = HDAC3 (Homo sapiens (Human), UniProt O15379); assay: biochemical HDAC assay (Reaction Biology Corp.), HDAC3; details: fluorogenic peptide RHKK(Ac)AMC; 10-dose, 3-fold dilution from 10 μM
HDAC3, sequence (O15379 whole entry): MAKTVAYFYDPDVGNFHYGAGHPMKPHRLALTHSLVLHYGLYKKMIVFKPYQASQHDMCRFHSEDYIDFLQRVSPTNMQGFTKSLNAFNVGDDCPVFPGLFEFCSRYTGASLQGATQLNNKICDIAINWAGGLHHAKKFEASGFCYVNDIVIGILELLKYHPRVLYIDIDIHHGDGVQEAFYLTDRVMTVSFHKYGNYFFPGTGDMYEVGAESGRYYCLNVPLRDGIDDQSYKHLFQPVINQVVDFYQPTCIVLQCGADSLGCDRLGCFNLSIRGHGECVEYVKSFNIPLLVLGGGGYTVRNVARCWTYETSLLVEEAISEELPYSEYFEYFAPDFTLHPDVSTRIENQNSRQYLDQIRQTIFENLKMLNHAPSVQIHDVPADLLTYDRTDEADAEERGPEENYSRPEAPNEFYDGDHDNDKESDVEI
HDAC3, sequence (Q9Y618 395-489 partner): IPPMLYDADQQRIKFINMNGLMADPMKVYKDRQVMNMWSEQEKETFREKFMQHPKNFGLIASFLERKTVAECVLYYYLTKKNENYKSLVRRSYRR
Procedure: as §1, §2, §3, §4, §5

HDAC 1 = HDAC 1 (Homo sapiens (Human), UniProt Q13547); assay: biochemical HDAC assay (Reaction Biology Corp.), HDAC1; details: fluorogenic peptide RHKK(Ac)AMC; 10-dose, 3-fold dilution from 10 μM
HDAC 1, sequence (Q13547 whole entry, the tested form may be a part): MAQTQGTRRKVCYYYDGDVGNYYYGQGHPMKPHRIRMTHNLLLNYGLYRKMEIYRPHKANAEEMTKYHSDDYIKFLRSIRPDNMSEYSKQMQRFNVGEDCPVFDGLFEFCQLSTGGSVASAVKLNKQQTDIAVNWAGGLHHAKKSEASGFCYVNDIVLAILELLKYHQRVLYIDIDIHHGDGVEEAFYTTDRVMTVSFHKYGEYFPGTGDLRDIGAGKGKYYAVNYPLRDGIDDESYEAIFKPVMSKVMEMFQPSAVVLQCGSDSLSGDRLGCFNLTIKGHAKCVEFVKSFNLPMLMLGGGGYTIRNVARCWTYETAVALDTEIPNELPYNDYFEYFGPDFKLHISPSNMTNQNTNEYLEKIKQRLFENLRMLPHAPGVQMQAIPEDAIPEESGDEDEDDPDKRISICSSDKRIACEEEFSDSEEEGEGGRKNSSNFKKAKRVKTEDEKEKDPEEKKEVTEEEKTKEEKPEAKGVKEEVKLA
Procedure: The inhibitory activities of compounds of present invention were determined using biochemical HDAC assays (Reaction Biology Corp. biochemical assay services). Compound with indicated doses was tested in the biochemical assays of HDAC 1, HDAC2, HDAC3, HDAC4, HDAC5, HDAC6, HDAC7, HDAC 8, HDAC9, HDAC10, and HDAC11 enzyme. Compounds were tested in singlicate 10-dose IC50 mode with 3-fold serial dilution starting at 10 μM against 11 HDACs. HDAC reference compounds Trichostatin A (TSA) and TMP269 were tested in a 10-dose IC50 with 3-fold serial dilution starting at 10 μM. Substrate for HDAC1,2,3,6,10: Fluorogenic peptide from p53 residues 379-382 (RHKK(Ac)AMC). Substrate for HDAC4,5,7,9, and 11: Fluorogenic HDAC Class2a Substrate (Trifluoroacetyl Lysine). Substrate for HDAC 8: Fluorogenic peptide from p53 residues 379-382 (RHK(Ac)K(Ac)AMC). General Reaction Procedure: (Standard IC50 determination) • a. 2× enzyme was added to wells of reaction plate except to No Enzyme (No En) control wells. Add buffer in No En wells. • b. Compounds to be tested in 100% DMSO were added to the enzyme mixture by Acoustic technology (Echo550; nanoliter range). The mixture was spinned down and preincubated. • c. 2× Substrate Mixture (Fluorogenic HDAC Substrate and co-factor (500 μM of Nicotinamide adenine dinucleotide (NAD<+>) in all Sirt assay) were added to all reaction wells to initiate the reaction. The plates were spinned and shaken. • d. The plates were incubated for 1-2 hr. at 30° C. with seal. • e. Developer with Trichostatin A (or TMP269 or NAD<+>) was added to stop the reaction and to generate fluorescent color. • f. Fluorescence was read (excitatory, 360; emission, 460) using the EnVision Multilabel Plate Reader (Perkin Elmer) • g. Endpoint reading was taken for analysis after the development reaches plateau. Data Analysis: The percentages of enzyme activity (relative to DMSO controls) and IC50 values were calculated using the GraphPad Prism 4 program based on a sigmoidal dose-response equation. The blank (DMSO) value was entered as 1.00E-12 of concentration for curve fitting.

HDAC6 = HDAC6 (Homo sapiens (Human), UniProt Q9UBN7); assay: biochemical HDAC assay (Reaction Biology Corp.), HDAC6; details: fluorogenic peptide RHKK(Ac)AMC; 10-dose, 3-fold dilution from 10 μM
HDAC6, sequence (Q9UBN7 whole entry): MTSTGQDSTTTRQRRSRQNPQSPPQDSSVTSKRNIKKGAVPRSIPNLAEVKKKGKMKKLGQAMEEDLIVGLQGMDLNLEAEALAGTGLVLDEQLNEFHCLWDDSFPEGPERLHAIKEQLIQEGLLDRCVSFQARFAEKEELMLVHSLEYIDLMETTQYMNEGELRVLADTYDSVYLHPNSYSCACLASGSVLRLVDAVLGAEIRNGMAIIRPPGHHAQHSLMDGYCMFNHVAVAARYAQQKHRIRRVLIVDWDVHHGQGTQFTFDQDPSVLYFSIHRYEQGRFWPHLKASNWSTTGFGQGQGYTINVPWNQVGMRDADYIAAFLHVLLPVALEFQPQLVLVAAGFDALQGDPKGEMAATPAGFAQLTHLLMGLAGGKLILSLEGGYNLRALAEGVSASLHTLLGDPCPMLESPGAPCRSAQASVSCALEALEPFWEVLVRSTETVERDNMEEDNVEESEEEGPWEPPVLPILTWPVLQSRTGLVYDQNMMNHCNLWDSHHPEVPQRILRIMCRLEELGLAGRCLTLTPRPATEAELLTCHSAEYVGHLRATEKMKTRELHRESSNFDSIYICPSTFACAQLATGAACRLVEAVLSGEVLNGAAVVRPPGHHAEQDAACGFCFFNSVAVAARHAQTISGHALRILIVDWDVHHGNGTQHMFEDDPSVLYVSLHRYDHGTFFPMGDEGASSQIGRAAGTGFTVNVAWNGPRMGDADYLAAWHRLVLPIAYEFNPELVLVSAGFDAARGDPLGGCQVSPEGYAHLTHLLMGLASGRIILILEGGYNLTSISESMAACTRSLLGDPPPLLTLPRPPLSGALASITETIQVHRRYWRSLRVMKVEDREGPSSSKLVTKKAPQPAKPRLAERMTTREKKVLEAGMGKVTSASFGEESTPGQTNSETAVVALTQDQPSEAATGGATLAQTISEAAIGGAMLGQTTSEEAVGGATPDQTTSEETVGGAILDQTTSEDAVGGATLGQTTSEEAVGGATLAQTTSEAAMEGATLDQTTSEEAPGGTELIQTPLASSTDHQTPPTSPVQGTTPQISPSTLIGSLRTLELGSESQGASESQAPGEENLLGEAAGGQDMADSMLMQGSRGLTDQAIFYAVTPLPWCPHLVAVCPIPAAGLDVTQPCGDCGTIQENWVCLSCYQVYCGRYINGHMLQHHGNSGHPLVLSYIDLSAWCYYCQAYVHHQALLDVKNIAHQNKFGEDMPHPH
Procedure: as §1, §2, §3, §4, §5

HDAC8 = HDAC8 (Homo sapiens (Human), UniProt Q9BY41); assay: biochemical HDAC assay (Reaction Biology Corp.), HDAC8; details: fluorogenic peptide RHK(Ac)K(Ac)AMC; 10-dose, 3-fold dilution from 10 μM
HDAC8, sequence (Q9BY41 whole entry): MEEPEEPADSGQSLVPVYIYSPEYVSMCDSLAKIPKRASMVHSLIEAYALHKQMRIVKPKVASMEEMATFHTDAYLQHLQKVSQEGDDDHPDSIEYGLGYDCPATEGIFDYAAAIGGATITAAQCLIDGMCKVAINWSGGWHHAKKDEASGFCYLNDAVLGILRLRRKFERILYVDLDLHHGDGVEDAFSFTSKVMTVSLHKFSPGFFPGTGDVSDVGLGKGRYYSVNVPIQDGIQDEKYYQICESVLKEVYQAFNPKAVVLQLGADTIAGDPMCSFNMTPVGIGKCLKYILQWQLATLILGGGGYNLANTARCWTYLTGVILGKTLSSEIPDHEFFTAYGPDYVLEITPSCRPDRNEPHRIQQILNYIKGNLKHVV
Procedure: as §1, §2, §3, §4, §5

HDAC2, sequence (Q92769 whole entry): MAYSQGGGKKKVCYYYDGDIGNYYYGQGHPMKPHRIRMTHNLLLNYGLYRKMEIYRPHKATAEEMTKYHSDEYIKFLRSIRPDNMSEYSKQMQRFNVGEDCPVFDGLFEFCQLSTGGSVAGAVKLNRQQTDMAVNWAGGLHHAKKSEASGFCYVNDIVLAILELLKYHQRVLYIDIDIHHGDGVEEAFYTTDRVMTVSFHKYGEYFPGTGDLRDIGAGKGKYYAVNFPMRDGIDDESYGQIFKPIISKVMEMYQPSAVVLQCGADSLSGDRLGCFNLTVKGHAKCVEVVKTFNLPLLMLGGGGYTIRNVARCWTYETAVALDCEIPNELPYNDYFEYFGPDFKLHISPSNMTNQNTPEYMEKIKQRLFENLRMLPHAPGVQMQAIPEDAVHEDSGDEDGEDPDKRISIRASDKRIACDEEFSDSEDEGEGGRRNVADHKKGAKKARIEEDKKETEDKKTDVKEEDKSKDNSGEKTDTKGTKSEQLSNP

Compound	IC50 (HDAC2)	IC50 (HDAC10)	IC50 (HDAC3)	IC50 (HDAC 1)	IC50 (HDAC6)	IC50 (HDAC8)
Nc1ccc(-c2ccc(F)cc2)nc1NC(=O)c1ccc(-c2cccnc2)nc1 [Example 21, N-(3-amino-6-(4-fluorophenyl)pyridin-2-yl)-[2,3′-bipyridine]-5-carboxamide]	200 to 1000 nM	–	–	–	–	–
N#Cc1cccc(-c2ccc(C(=O)Nc3nc(-c4ccc(F)cc4)ccc3N)cn2)c1 [Example 22, N-(3-amino-6-(4-fluorophenyl)pyridin-2-yl)-6-(3-cyanophenyl)nicotinamide]	200 to 1000 nM	–	–	–	–	–
Nc1ccc(-c2ccccc2)nc1NC(=O)c1cnc(NC2CC2)nc1 [Example 16, N-(3-amino-6-phenylpyridin-2-yl)-2-(cyclopropylamino)pyrimidine-5-carboxamide]	< 200 nM	–	–	–	–	–
Nc1ccc(-c2ccc(F)cc2)nc1NC(=O)c1ccc(N2CCOCC2)nc1 [Example 5, N-(3-amino-6-(4-fluorophenyl)pyridin-2-yl)-6-morpholinonicotinamide]	< 200 nM	1000 to 50000 nM	≥ 50000 nM	< 200 nM	–	≥ 50000 nM
COc1ccc(-c2ccc(N)c(NC(=O)c3ccc(N4CCN(C)CC4)nc3)n2)cc1 [Example 7, N-(3-amino-6-(4-methoxyphenyl)pyridin-2-yl)-6-(4-methylpiperazin-1-yl)nicotinamide]	200 to 1000 nM	–	–	–	–	–
Nc1ccc(-c2ccccc2)nc1NC(=O)c1cccnc1 [Example 2, N-(3-amino-6-phenylpyridin-2-yl)nicotinamide]	< 200 nM	–	–	–	–	–
CN1CCN(c2ccc(C(=O)Nc3nc(-c4ccncc4)ccc3N)cn2)CC1 [Example 8, N-(5-amino-[2,4′-bipyridin]-6-yl)-6-(4-methylpiperazin-1-yl)nicotinamide]	200 to 1000 nM	–	–	–	–	–
CN1CCN(c2ccc(C(=O)Nc3nc(-c4ccc(F)cc4)ccc3N)cn2)CC1 [Example 6, N-(3-amino-6-(4-fluorophenyl)pyridin-2-yl)-6-(4-methylpiperazin-1-yl)nicotinamide]	< 200 nM	1000 to 50000 nM	≥ 50000 nM	< 200 nM	≥ 50000 nM	≥ 50000 nM
CN1CCN(c2ccc(C(=O)Nc3nc(-c4ccc(F)c(F)c4)ccc3N)cn2)CC1 [Example 9, N-(3-amino-6-(3,4-difluorophenyl)pyridin-2-yl)-6-(4-methylpiperazin-1-yl)nicotinamide]	200 to 1000 nM	–	–	–	–	–
Nc1ccc(-c2ccc(F)cc2)nc1NC(=O)c1ccc(N2CCNCC2)nc1 [Example 25, N-(3-amino-6-(4-fluorophenyl)pyridin-2-yl)-6-(piperazin-1-yl)nicotinamide]	< 200 nM	1000 to 50000 nM	≥ 50000 nM	200 to 1000 nM	1000 to 50000 nM	≥ 50000 nM
CN1CCN(c2ncc(C(=O)Nc3nc(-c4ccccc4)ccc3N)cn2)CC1 [Example 10, N-(3-amino-6-phenylpyridin-2-yl)-2-(4-methylpiperazin-1-yl)pyrimidine-5-carboxamide]	< 200 nM	–	–	–	–	–
Nc1ccc(-c2ccccc2)nc1NC(=O)c1ccc(N2CCOCC2)nc1 [Example 4, N-(3-amino-6-phenylpyridin-2-yl)-6-morpholinonicotinamide]	< 200 nM	–	–	–	–	–
CN1CCN(c2ncc(C(=O)Nc3nc(-c4ccc(F)cc4)ccc3N)cn2)CC1 [Example 15, N-(3-amino-6-(4-fluorophenyl)pyridin-2-yl)-2-(4-methylpiperazin-1-yl)pyrimidine-5-carboxamide]	< 200 nM	–	–	–	–	–

Other lines, results leading:

IC50 (HDAC2)	IC50 (HDAC10)	IC50 (HDAC3)	IC50 (HDAC 1)	IC50 (HDAC6)	IC50 (HDAC8)	Compound
< 200 nM	≥ 50000 nM	≥ 50000 nM	1000 to 50000 nM	–	–	Nc1ccc(-c2ccc(F)cc2)nc1NC(=O)c1cnc(NC2CC2)nc1 [Example 17, N-(3-amino-6-(4-fluorophenyl)pyridin-2-yl)-2-(cyclopropylamino)pyrimidine-5-carboxamide]
< 200 nM	–	–	–	–	–	CN1CCN(c2ccc(C(=O)Nc3nc(-c4ccccc4)ccc3N)cn2)CC1 [Example 1, N-(3-amino-6-phenylpyridin-2-yl)-6-(4-methylpiperazin-1-yl)nicotinamide]
< 200 nM	1000 to 50000 nM	1000 to 50000 nM	< 200 nM	1000 to 50000 nM	–	CN1CCN(c2ccc(C(=O)Nc3nc(-c4cccs4)ccc3N)cn2)CC1 [Example 29, N-(3-amino-6-(thiophen-2-yl)pyridin-2-yl)-6-(4-methylpiperazin-1-yl)nicotinamide]
< 200 nM	–	–	–	–	–	Nc1ccc(-c2ccc(F)cc2)nc1NC(=O)c1cnc(N2CCOCC2)nc1 [Example 14, N-(3-amino-6-(4-fluorophenyl)pyridin-2-yl)-2-morpholinopyrimidine-5-carboxamide]
< 200 nM	1000 to 50000 nM	≥ 50000 nM	< 200 nM	1000 to 50000 nM	–	Nc1ccc(-c2ccc(F)cc2)nc1NC(=O)c1ccc(N2CCC(N)CC2)nc1 [Example 27, N-(3-amino-6-(4-fluorophenyl)pyridin-2-yl)-6-(4-aminopiperidin-1-yl)nicotinamide]
< 200 nM	–	–	–	–	–	N-(3-amino-6-(4-fluorophenyl)pyridin-2-yl)-6-(4-methylpiperazin-1-yl)nicotinamide [Example 13]
< 200 nM	–	–	–	–	–	Nc1ccc(-c2ccc(F)cc2)nc1NC(=O)c1cccnc1 [Example 3, N-(3-amino-6-(4-fluorophenyl)pyridin-2-yl)nicotinamide]
< 200 nM	–	–	–	–	–	CN1CCN(CCNc2ccc(C(=O)Nc3nc(-c4ccc(F)cc4)ccc3N)cn2)CC1 [Example 30, N-(3-amino-6-(4-fluorophenyl)pyridin-2-yl)-6-((2-(4-methylpiperazin-1-yl)ethyl)amino)nicotinamide]
